Measured values published in patent publication US20060128979A1, “High purity palm monoglycerides” (Lembaga Minyak Sawit Malaysia, priority 2004, published 2006).

Columns and labels:
Type in all cases: cell-based
[1] = tested on: methicillin-resistant Staphylococcus aureus (MRSA) isolate CT184; experiment: Disc diffusion assay, MRSA isolate CT184
Text: (§1) Monolaurin samples (MC, MW and MX) synthesized using the present invention were subjected to bio-assay evaluation. Disc diffusion assay was adopted as preliminary evaluation of the compounds as anti methicillin-resistant Staphylococcus aureus (MRSA) agent. Four types of antibiotics were used as comparison: Vancomycin (Va), Rifampicin (RD), Chloamphenicol (C) and Gentamicin (CN).

[2] = tested on: methicillin-resistant Staphylococcus aureus (MRSA) isolate D51; experiment: Disc diffusion assay, MRSA isolate D51
Text: as §1

[3] = tested on: methicillin-resistant Staphylococcus aureus (MRSA) isolate HIS87; experiment: Disc diffusion assay, MRSA isolate HIS87
Text: as §1

[4] = tested on: methicillin-resistant Staphylococcus aureus (MRSA) isolate SA; experiment: Disc diffusion assay, MRSA isolate SA
Text: as §1

[5] = tested on: methicillin-resistant Staphylococcus aureus (MRSA) isolate SP521; experiment: Disc diffusion assay, MRSA isolate SP521
Text: as §1

[6] = tested on: methicillin-resistant Staphylococcus aureus (MRSA) isolate ST122; experiment: Disc diffusion assay, MRSA isolate ST122
Text: as §1

[7] = tested on: methicillin-resistant Staphylococcus aureus (MRSA) isolate N34; experiment: Disc diffusion assay, MRSA isolate N34
Text: as §1

[8] = tested on: methicillin-resistant Staphylococcus aureus (MRSA) isolate U949; experiment: Disc diffusion assay, MRSA isolate U949
Text: as §1

[9] = C (Chloamphenicol) as comparison

`CCCCCCCCCCCC(=O)OCC(O)CO` (stereo not shown) [MC, monolaurin] was tested, and the “Diameter of Inhibitory Zone” value [1, 9] was 0.82 mm, the “Diameter of Inhibitory Zone” value ([1]; CN (Gentamicin) as comparison) was 0.35 mm and the “Diameter of Inhibitory Zone” value ([1]; Rd (Rifampicin) as comparison) was 0.42 mm. The “Diameter of Inhibitory Zone” value ([1]; Va (Vancomycin) as comparison) was 2.79 mm, the “Diameter of Inhibitory Zone” value [2, 9] was 0.87 mm and the “Diameter of Inhibitory Zone” value ([2]; CN (Gentamicin) as comparison) was 0.86 mm. For the same compound, the “Diameter of Inhibitory Zone” value ([2]; Rd (Rifampicin) as comparison) was 0.11 mm, the “Diameter of Inhibitory Zone” value ([2]; Va (Vancomycin) as comparison) was 2.95 mm and the “Diameter of Inhibitory Zone” value [3, 9] was 0.84 mm. The “Diameter of Inhibitory Zone” value ([3]; CN (Gentamicin) as comparison) was 0.96 mm, the “Diameter of Inhibitory Zone” value ([3]; Rd (Rifampicin) as comparison) was 0.11 mm and the “Diameter of Inhibitory Zone” value ([3]; Va (Vancomycin) as comparison) was 2.79 mm. The “Diameter of Inhibitory Zone” value [4, 9] was 2.00 mm, the “Diameter of Inhibitory Zone” value ([4]; CN (Gentamicin) as comparison) was 0.40 mm and the “Diameter of Inhibitory Zone” value ([4]; Rd (Rifampicin) as comparison) was 0.40 mm. The “Diameter of Inhibitory Zone” value ([4]; Va (Vancomycin) as comparison) was 2.92 mm, the “Diameter of Inhibitory Zone” value [5, 9] was 2.68 mm and the “Diameter of Inhibitory Zone” value ([5]; CN (Gentamicin) as comparison) was 1.13 mm. The “Diameter of Inhibitory Zone” value ([5]; Rd (Rifampicin) as comparison) was 1.13 mm, the “Diameter of Inhibitory Zone” value ([5]; Va (Vancomycin) as comparison) was 7.64 mm and the “Diameter of Inhibitory Zone” value [6, 9] was 5.50 mm. The “Diameter of Inhibitory Zone” value ([6]; CN (Gentamicin) as comparison) was 1.17 mm, the “Diameter of Inhibitory Zone” value ([6]; Rd (Rifampicin) as comparison) was 1.17 mm and the “Diameter of Inhibitory Zone” value ([6]; Va (Vancomycin) as comparison) was 8.26 mm. The “Diameter of Inhibitory Zone” value [7, 9] was 0.89 mm, the “Diameter of Inhibitory Zone” value ([7]; CN (Gentamicin) as comparison) was 0.44 mm and the “Diameter of Inhibitory Zone” value ([7]; Rd (Rifampicin) as comparison) was 0.44 mm. The “Diameter of Inhibitory Zone” value ([7]; Va (Vancomycin) as comparison) was 2.99 mm, the “Diameter of Inhibitory Zone” value [8, 9] was 4.73 mm and the “Diameter of Inhibitory Zone” value ([8]; CN (Gentamicin) as comparison) was 1.02 mm. The “Diameter of Inhibitory Zone” value ([8]; Rd (Rifampicin) as comparison) was 1.02 mm and the “Diameter of Inhibitory Zone” value ([8]; Va (Vancomycin) as comparison) was 7.77 mm.

`CCCCCCCCCCCC(=O)OCC(O)CO` (stereo not shown) [MW, monolaurin] was tested, and the “Diameter of Inhibitory Zone” value [1, 9] was 0.82 mm, the “Diameter of Inhibitory Zone” value ([1]; CN (Gentamicin) as comparison) was 0.35 mm and the “Diameter of Inhibitory Zone” value ([1]; Rd (Rifampicin) as comparison) was 0.42 mm. The “Diameter of Inhibitory Zone” value ([1]; Va (Vancomycin) as comparison) was 2.79 mm, the “Diameter of Inhibitory Zone” value [2, 9] was 0.88 mm and the “Diameter of Inhibitory Zone” value ([2]; CN (Gentamicin) as comparison) was 0.88 mm. For the same compound, the “Diameter of Inhibitory Zone” value ([2]; Rd (Rifampicin) as comparison) was 0.11 mm, the “Diameter of Inhibitory Zone” value ([2]; Va (Vancomycin) as comparison) was 3.00 mm and the “Diameter of Inhibitory Zone” value [3, 9] was 0.85 mm. For the same compound, the “Diameter of Inhibitory Zone” value ([3]; CN (Gentamicin) as comparison) was 0.98 mm, the “Diameter of Inhibitory Zone” value ([3]; Rd (Rifampicin) as comparison) was 0.12 mm and the “Diameter of Inhibitory Zone” value ([3]; Va (Vancomycin) as comparison) was 2.84 mm. The “Diameter of Inhibitory Zone” value [4, 9] was 3.72 mm, the “Diameter of Inhibitory Zone” value ([4]; CN (Gentamicin) as comparison) was 0.74 mm and the “Diameter of Inhibitory Zone” value ([4]; Rd (Rifampicin) as comparison) was 0.74 mm. For the same compound, the “Diameter of Inhibitory Zone” value ([4]; Va (Vancomycin) as comparison) was 5.42 mm, the “Diameter of Inhibitory Zone” value [5, 9] was 2.14 mm and the “Diameter of Inhibitory Zone” value ([5]; CN (Gentamicin) as comparison) was 0.90 mm. The “Diameter of Inhibitory Zone” value ([5]; Rd (Rifampicin) as comparison) was 0.90 mm, the “Diameter of Inhibitory Zone” value ([5]; Va (Vancomycin) as comparison) was 6.12 mm and the “Diameter of Inhibitory Zone” value [6, 9] was 4.25 mm. For the same compound, the “Diameter of Inhibitory Zone” value ([6]; CN (Gentamicin) as comparison) was 0.90 mm, the “Diameter of Inhibitory Zone” value ([6]; Rd (Rifampicin) as comparison) was 0.90 mm and the “Diameter of Inhibitory Zone” value ([6]; Va (Vancomycin) as comparison) was 6.38 mm. For the same compound, the “Diameter of Inhibitory Zone” value [7, 9] was 0.93 mm, the “Diameter of Inhibitory Zone” value ([7]; CN (Gentamicin) as comparison) was 0.46 mm and the “Diameter of Inhibitory Zone” value ([7]; Rd (Rifampicin) as comparison) was 0.46 mm. The “Diameter of Inhibitory Zone” value ([7]; Va (Vancomycin) as comparison) was 3.12 mm, the “Diameter of Inhibitory Zone” value [8, 9] was 1.85 mm and the “Diameter of Inhibitory Zone” value ([8]; CN (Gentamicin) as comparison) was 0.40 mm. For the same compound, the “Diameter of Inhibitory Zone” value ([8]; Rd (Rifampicin) as comparison) was 0.40 mm and the “Diameter of Inhibitory Zone” value ([8]; Va (Vancomycin) as comparison) was 3.04 mm.
